Test [1] concerns the target TRAF2 and NCK-interacting protein kinase (Homo sapiens) (UniProt Q9UKE5). Nature of the test: Selectivity interaction (Ambit KINOMEscan and KiNATiv profiling in Jurkat cells) EUB0000090b TNIK. It is filed as cell-based. The conditions noted are these: at 1 µM.
The target of test [2] is Myosin light chain kinase, smooth muscle (Homo sapiens, UniProt Q15746). The conditions noted are these: at 10 µM.
Test [3] concerns the target Ribosomal protein S6 kinase alpha-1 (Homo sapiens, UniProt Q15418). To be noted: at 10 µM.
For test [4], the target named is NT-3 growth factor receptor (Homo sapiens, UniProt Q16288). Briefly: Selectivity interaction (KinomeScan (DiscoverX)) EUB0001079a NTRK3. To be noted: at 1 µM.
In test [5] the target is T1, Tyrosine-protein kinase Mer (Homo sapiens) (UniProt Q12866).
T1 sequence (whole entry): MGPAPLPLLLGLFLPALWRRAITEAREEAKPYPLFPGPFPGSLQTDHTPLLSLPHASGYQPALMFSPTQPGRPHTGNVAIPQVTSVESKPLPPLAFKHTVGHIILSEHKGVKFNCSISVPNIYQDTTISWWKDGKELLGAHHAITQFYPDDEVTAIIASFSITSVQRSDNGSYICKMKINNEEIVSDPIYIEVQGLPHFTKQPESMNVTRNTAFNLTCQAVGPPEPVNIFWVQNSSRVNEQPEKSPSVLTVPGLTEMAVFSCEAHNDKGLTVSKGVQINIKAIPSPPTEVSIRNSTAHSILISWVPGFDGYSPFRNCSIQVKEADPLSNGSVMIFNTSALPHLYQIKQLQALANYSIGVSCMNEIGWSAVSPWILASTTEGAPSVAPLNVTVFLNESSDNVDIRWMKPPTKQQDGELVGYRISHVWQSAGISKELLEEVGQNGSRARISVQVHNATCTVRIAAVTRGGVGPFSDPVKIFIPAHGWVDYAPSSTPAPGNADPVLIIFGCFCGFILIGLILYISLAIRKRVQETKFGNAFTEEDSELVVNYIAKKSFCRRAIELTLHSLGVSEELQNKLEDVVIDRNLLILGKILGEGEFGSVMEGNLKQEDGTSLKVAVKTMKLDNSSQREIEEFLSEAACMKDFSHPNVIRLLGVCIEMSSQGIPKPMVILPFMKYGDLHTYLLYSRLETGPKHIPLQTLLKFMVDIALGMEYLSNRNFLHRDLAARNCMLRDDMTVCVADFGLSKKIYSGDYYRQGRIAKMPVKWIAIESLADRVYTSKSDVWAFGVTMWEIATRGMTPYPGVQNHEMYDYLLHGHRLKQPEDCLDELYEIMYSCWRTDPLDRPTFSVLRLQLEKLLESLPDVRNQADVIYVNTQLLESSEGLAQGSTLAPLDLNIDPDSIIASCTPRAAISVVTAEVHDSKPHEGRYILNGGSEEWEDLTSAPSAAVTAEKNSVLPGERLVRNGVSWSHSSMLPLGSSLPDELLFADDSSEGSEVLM
Nature of the test: Selectivity interaction (KinomeScan (DiscoverX)) EUB0001049a MERTK. The conditions noted are these: at 1 µM.

Test [6] relates to Epidermal growth factor receptor (Homo sapiens), P00533 [UNDEFINED MUTATION]. Briefly: Selectivity interaction (KinomeScan (DiscoverX)) EUB0000607a EGFR. The conditions noted are these: at 10 µM.
Test [7] addresses T2, Serine/threonine-protein kinase ULK2 (Homo sapiens) (UniProt Q8IYT8).
T2 sequence (whole entry): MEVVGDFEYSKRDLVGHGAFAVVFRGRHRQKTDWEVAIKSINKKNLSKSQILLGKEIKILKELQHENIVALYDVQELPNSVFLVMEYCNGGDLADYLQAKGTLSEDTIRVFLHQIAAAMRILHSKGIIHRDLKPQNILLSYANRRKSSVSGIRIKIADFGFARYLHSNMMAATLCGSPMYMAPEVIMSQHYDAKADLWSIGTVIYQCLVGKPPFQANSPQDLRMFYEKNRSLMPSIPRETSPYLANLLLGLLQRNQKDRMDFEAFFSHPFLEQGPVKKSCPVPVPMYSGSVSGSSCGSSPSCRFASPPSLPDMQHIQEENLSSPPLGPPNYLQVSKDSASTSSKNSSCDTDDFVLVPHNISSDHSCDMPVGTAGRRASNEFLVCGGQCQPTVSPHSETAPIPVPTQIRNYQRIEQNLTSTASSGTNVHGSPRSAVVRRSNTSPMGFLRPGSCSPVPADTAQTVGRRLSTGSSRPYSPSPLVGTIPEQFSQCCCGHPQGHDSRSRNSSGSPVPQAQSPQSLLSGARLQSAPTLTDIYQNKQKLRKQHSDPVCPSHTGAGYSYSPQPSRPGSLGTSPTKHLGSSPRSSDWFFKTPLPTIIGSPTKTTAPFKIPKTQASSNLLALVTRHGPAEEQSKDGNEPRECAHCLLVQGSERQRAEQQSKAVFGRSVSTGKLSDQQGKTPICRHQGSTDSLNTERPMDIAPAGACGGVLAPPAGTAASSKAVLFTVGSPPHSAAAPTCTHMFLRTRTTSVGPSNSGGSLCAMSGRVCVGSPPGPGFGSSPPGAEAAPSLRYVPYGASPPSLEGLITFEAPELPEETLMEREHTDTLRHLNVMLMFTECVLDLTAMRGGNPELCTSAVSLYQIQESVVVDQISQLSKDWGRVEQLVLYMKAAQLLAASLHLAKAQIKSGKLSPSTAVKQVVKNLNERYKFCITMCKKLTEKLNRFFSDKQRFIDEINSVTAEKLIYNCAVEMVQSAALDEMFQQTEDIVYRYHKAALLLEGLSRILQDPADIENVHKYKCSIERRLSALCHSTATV
Nature of the test: Selectivity interaction (KinomeScan (DiscoverX)) EUB0000607a ULK2. To be noted: at 10 µM.

TRAF2 and NCK-interacting protein kinase (Homo sapiens), sequence (Q9UKE5 whole entry, looked up): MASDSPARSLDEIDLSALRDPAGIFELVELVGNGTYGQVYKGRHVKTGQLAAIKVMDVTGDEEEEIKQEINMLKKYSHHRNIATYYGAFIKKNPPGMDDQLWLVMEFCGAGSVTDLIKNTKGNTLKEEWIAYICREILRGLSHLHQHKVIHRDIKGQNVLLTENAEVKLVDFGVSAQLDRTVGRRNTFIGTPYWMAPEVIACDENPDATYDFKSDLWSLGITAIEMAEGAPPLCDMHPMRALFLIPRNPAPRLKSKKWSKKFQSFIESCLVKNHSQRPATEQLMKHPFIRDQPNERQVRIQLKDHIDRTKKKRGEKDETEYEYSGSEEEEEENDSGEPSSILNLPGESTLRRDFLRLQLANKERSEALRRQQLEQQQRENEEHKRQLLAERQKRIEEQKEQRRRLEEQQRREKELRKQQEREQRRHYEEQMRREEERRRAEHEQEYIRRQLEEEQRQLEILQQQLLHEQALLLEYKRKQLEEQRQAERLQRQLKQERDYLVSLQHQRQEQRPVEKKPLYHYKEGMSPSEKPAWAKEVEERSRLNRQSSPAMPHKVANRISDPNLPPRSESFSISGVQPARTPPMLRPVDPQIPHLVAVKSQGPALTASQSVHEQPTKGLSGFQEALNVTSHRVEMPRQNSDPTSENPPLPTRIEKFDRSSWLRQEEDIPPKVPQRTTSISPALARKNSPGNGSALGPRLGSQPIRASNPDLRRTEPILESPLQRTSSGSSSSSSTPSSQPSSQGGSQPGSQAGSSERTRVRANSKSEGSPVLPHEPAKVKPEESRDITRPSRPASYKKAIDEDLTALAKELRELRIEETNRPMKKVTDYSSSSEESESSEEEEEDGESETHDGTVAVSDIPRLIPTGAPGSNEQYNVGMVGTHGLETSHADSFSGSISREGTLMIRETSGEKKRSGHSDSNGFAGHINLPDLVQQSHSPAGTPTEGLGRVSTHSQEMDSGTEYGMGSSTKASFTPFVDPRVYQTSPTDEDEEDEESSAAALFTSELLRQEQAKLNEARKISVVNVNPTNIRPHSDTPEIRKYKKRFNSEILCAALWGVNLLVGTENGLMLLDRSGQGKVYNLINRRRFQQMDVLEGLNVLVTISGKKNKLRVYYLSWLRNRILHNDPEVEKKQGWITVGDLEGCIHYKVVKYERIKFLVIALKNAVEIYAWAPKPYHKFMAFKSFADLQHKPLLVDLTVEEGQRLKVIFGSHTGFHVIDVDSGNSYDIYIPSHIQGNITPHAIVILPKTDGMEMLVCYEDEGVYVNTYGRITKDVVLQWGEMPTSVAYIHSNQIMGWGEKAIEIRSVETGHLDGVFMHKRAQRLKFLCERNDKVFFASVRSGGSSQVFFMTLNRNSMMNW
NT-3 growth factor receptor, sequence (Q16288 32-839 limits assumed): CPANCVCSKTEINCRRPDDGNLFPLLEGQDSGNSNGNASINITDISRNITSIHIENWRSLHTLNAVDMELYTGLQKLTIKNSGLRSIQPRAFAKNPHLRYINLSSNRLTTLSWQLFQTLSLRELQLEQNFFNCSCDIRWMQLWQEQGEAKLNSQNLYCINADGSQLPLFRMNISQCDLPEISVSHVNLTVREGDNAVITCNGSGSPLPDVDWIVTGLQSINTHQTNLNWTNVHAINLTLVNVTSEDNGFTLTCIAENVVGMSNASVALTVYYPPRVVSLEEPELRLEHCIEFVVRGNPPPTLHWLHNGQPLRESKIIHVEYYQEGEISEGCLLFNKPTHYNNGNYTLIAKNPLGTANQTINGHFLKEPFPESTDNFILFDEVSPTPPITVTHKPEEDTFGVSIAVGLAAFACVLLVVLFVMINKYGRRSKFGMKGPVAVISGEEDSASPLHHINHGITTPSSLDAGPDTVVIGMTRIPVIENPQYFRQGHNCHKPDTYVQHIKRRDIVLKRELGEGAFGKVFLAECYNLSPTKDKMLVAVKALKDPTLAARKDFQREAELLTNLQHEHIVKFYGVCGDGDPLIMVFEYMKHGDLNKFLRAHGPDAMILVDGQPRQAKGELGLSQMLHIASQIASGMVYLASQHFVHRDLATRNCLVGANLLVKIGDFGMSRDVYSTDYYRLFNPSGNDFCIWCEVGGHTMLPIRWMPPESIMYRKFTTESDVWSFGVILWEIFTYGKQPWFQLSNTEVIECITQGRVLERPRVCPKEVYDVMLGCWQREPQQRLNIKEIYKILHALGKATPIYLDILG
Epidermal growth factor receptor (Homo sapiens), P00533 [UNDEFINED MUTATION], sequence (P00533 whole entry, looked up, change not shown): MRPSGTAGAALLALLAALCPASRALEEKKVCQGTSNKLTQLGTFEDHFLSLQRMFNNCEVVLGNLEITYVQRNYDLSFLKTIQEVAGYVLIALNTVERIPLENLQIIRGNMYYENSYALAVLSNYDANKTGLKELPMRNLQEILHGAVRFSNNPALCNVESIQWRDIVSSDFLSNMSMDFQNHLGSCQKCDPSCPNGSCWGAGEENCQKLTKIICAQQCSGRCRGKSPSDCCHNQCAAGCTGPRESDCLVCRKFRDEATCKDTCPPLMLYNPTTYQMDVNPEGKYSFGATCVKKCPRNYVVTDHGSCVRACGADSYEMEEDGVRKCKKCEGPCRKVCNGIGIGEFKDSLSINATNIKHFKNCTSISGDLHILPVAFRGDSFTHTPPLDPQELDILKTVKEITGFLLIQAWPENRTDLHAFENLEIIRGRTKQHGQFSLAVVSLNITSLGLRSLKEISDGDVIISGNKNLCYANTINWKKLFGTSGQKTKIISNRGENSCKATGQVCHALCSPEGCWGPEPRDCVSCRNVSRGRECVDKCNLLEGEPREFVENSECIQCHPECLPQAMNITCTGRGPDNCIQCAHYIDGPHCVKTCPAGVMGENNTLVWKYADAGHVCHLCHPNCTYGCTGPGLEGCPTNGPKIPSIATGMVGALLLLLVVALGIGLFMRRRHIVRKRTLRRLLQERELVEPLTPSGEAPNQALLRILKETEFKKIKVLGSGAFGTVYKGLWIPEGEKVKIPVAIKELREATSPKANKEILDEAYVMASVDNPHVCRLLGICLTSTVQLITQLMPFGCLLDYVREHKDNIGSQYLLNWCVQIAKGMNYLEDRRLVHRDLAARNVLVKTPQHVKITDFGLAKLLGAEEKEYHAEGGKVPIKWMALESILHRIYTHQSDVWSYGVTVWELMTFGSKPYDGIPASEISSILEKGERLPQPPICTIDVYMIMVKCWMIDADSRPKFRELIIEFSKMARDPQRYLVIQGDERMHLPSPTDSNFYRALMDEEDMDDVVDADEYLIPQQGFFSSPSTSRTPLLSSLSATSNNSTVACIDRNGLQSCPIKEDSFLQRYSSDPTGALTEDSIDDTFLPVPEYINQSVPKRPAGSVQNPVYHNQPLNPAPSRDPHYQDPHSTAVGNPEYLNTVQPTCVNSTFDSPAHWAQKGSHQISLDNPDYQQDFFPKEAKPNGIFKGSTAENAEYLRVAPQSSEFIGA
Ribosomal protein S6 kinase alpha-1, sequence (Q15418 whole entry): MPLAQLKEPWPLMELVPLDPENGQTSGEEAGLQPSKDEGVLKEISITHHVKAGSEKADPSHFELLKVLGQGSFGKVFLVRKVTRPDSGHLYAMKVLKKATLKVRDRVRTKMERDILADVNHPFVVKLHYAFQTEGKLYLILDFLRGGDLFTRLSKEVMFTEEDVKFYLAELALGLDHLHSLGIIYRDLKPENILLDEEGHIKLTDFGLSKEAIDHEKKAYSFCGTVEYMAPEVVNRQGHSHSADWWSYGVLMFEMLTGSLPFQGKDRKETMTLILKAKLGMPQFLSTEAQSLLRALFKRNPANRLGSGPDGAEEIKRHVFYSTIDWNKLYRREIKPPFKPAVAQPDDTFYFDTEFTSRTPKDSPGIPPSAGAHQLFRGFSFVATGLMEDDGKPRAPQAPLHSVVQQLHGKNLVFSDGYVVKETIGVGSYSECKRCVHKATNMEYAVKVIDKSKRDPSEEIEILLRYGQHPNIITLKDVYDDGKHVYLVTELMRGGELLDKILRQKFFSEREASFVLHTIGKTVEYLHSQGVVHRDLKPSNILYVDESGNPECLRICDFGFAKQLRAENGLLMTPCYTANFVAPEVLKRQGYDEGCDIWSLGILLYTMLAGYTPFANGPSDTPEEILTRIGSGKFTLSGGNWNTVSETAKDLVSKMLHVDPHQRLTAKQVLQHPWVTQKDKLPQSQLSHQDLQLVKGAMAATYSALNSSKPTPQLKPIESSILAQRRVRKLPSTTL

Turning to `CN(C)C/C=C/C(=O)Nc1ccc(C(=O)N2CCCC(Nc3ncc(Cl)c(-c4c[nH]c5ccccc45)n3)C2)cc1` (configuration not stated), in test [1], the % of control was found to be 91%. Consider `CCN(CC)CCCCNc1ncc2cc(-c3cc(OC)cc(OC)c3)c(NC(=O)NC(C)(C)C)nc2n1`, for which the % of control in test [2] and in test [3] was 100% throughout. With `Nc1cnc(N2CCc3cc(S(=O)(=O)Nc4c(F)cc(Cl)cc4F)cc(N4CCCC4=O)c32)nc1` [TP-020n], the % of control in test [4] stood at 97%.

In test [5], `COc1cc(Nc2nc(C)cc(-c3cnn4nc(OC)ccc34)n2)cc(C(F)(F)F)c1` came in with a % of control of 98%. Take `CNC(=O)Nc1ccc(-c2nc(N3CC4CCC(C3)O4)c3cnn(C4CCC5(CC4)OCCO5)c3n2)cc1`: the % of control in test [6] amounted to 52%; in test [7] it was 90%.
